# Results: patent US20110015225A1, “Heterocyclic compound” (Takeda Pharmaceutical Company Limited, priority 2008, published 2011)
# Biological target: MCH receptor (SLC-1) (UniProt Q99705)
# Assay: MCH receptor antagonistic activity using GTPγS binding assay
# Format: biochemical, human
# Conditions: [35S]-GTPγS binding, membrane fractions of SLC-1 expression CHO cells, 3×10^−10 M MCH, 25° C. 1 hr; read-out: Inhibitory Activity (IC50 value: nM)
# Description: Using human SLC-1 expression CHO cell clone 57 and rat SLC-1 expression CHO cell clone 44 described in WO01/82925, membrane fractions of SLC-1 expression CHO cells were prepared by the following method. In phosphate buffered saline (pH 7.4) supplemented with 5 mM EDTA (ethylenediaminetetraacetic acid) were suspended human and rat SLC-1 expression CHO cells (1×10^8) and centrifuged. Homogenate buffer (10 ml, 10 mM […], 5 mM EDTA, pH 7.5) was added to the pellets of the cells and, using Polytron Homogenizer, the mixture was homogenated. The supernatant obtained after centrifugation at 400×g for 15 min was further centrifuged at 100,000×g for 1 hr to give precipitate of the membrane fraction. The precipitate was suspended in 2 ml of an assay buffer [50 mM Tris-HCl (pH 7.5), 1 mM EDTA, 0.1% BSA (bovine serum albumin), 10 mM MgCl2, 100 mM NaCl, 1 μM GDP (guanosine 5′-diphosphate), 0.25 mM PMSF (phenylmethylsulfonyl fluoride), […]] and centrifuged at 100,000×g for 1 hr. The membrane fraction recovered as precipitate was suspended again in 20 ml of an assay buffer, and after dispensing, preserved at −80° C. and used upon thawing each time when in use.
# The MCH receptor antagonistic activity of the test compound was determined as follows. The membrane fractions of SLC-1 expression CHO cells (171 μl) diluted with an assay buffer was dispensed to a polypropylene 96 well plate and 3×10^−10 M MCH (2 μl) diluted with DMSO solution, test compound solution (2 μl) diluted to various concentrations and [^35S]-Guanosine 5′-(γ-thio)triphosphate (25 μl, Daiichi Pure Chemicals Co., Ltd.) were respectively added (cellular membrane final concentration: 20 μg/ml, [^35S]-Guanosine 5′-(γ-thio)triphosphate final concentration: 0.33 nM). The reaction mixture was reacted at 25° C. for 1 hr with stirring, suction filtered with a glass filter (GF-C) and washed 3 times with a wash solution (300 μl, 50 mM Tris-HCl buffer, pH 7.5). Liquid scintillator ([…]) was added to the glass filter and the residual radioactivity was determined by a liquid scintillation counter.
# Binding inhibition (%)=(radioactivity upon addition of test compound and MCH−radioactivity upon addition of DMSO solution)/(radioactivity upon addition of MCH−radioactivity upon addition of DMSO solution)×100
# From the binding inhibition (%), IC50 of the test compound was calculated.
row,SMILES,IC50
1,"Cc1c(NC(=O)c2ccc(OCC3CC3)cc2)ccc2cc(CNCCCS(C)(=O)=O)cnc12 [Ex. 2, 4-(cyclopropylmethoxy)-N-[8-methyl-3-({[3-(methylsulfonyl)propyl]amino}methyl)quinolin-7-yl]benzamide]",2.3 nM
2,"Cc1c(NC(=O)c2ccc(OCC3CC3)cc2)ccc2cc(C(C)NCCCS(C)(=O)=O)cnc12 (stereo not drawn) [Ex. 3, 4-(cyclopropylmethoxy)-N-[8-methyl-3-(1-{[3-(methylsulfonyl)propyl]amino}ethyl)quinolin-7-yl]benzamide]",2.2 nM
3,"Cc1c(NC(=O)c2ccc(OCC3CC3)cc2)ccc2cc(CNCC(C)(C)CS(C)(=O)=O)cnc12 [Ex. 4, 4-(cyclopropylmethoxy)-N-[3-({[2,2-dimethyl-3-(methylsulfonyl)propyl]amino}methyl)-8-methylquinolin-7-yl]benzamide]",2.8 nM
4,"Cc1c(NC(=O)c2ccc(OCC3CC3)cc2)ccc2cc(CNCCNS(C)(=O)=O)cnc12 [Ex. 6, 4-(cyclopropylmethoxy)-N-{8-methyl-3-[({2-[(methylsulfonyl)amino]ethyl}amino)methyl]quinolin-7-yl}benzamide]",4 nM
5,"Cc1c(NC(=O)c2ccc(OCC3CC3)cc2)ccc2cc(C(C)NCCNS(C)(=O)=O)cnc12 (stereo not drawn) [Ex. 7, 4-(cyclopropylmethoxy)-N-{8-methyl-3-[1-({2-[(methylsulfonyl)amino]ethyl}amino)ethyl]quinolin-7-yl}benzamide]",3.7 nM
6,"Cc1c(NC(=O)c2ccc(OCC3CC3)cc2)ccc2cc(CNC3CCN(S(C)(=O)=O)CC3)cnc12 [Ex. 8, 4-(cyclopropylmethoxy)-N-[8-methyl-3-({[1-(methylsulfonyl)piperidin-4-yl]amino}methyl)quinolin-7-yl]benzamide]",3.9 nM
7,"Cc1c(NC(=O)c2ccc(OCC3CC3)cc2)ccc2cc(CNCCCNS(C)(=O)=O)cnc12 [Ex. 13, 4-(cyclopropylmethoxy)-N-{8-methyl-3-[({3-[(methylsulfonyl)amino]propyl}amino)methyl]quinolin-7-yl}benzamide]",2.8 nM
8,"Cc1c(NC(=O)c2ccc(OCC3CC3)cc2)ccc2cc(CNCC3CCN(S(C)(=O)=O)CC3)cnc12 [Ex. 14, 4-(cyclopropylmethoxy)-N-{8-methyl-3-[({[1-(methylsulfonyl)piperidin-4-yl]methyl}amino)methyl]quinolin-7-yl}benzamide]",3 nM
9,"Cc1c(NC(=O)c2ccc(OCC3CC3)cc2)ccc2cc(CNCC3(O)CCS(=O)(=O)CC3)cnc12 [Ex. 15, 4-(cyclopropylmethoxy)-N-[3-({[(4-hydroxy-1,1-dioxidotetrahydro-2H-thiopyran-4-yl)methyl]amino}methyl)-8-methylquinolin-7-yl]benzamide]",5.6 nM
10,"Cc1c(NC(=O)c2ccc(OCC3CC3)cc2)ccc2cc(CNCC3CCS(=O)(=O)CC3)cnc12 [Ex. 16, 4-(cyclopropylmethoxy)-N-[3-({[(1,1-dioxidotetrahydro-2H-thiopyran-4-yl)methyl]amino}methyl)-8-methylquinolin-7-yl]benzamide]",1.8 nM
11,"Cc1c(NC(=O)c2ccc(OCCC3CC3)cc2)ccc2cc(CNCCCS(C)(=O)=O)cnc12 [Ex. 18, 4-(2-cyclopropylethoxy)-N-[8-methyl-3-({[3-(methylsulfonyl)propyl]amino}methyl)quinolin-7-yl]benzamide]",1.1 nM
12,"Cc1c(NC(=O)c2ccc(OCCC3CC3)cc2)ccc2cc(CNC3CCS(=O)(=O)CC3)cnc12 [Ex. 20, 4-(2-cyclopropylethoxy)-N-(3-{[(1,1-dioxidotetrahydro-2H-thiopyran-4-yl)amino]methyl}-8-methylquinolin-7-yl)benzamide]",1.4 nM
13,"Cc1c(NC(=O)c2ccc(OCCC3CC3)cc2)ccc2cc(CNC3CC[S+]([O-])CC3)cnc12 (stereo not drawn) [Ex. 21, 4-(2-cyclopropylethoxy)-N-(8-methyl-3-{[(trans-1-oxidotetrahydro-2H-thiopyran-4-yl)amino]methyl}quinolin-7-yl)benzamide]",2.7 nM
14,"Cc1c(NC(=O)c2ccc(OCCC3CC3)cc2)ccc2cc(CNC3CC[S+]([O-])CC3)cnc12 (stereo not drawn) [Ex. 22, 4-(2-cyclopropylethoxy)-N-(8-methyl-3-{[(cis-1-oxidotetrahydro-2H-thiopyran-4-yl)amino]methyl}quinolin-7-yl)benzamide]",1.8 nM
15,"Cc1c(NC(=O)c2ccc(OCCC3CC3)cc2F)ccc2cc(CNC3CCS(=O)(=O)CC3)cnc12 [Ex. 23, 4-(2-cyclopropylethoxy)-N-(3-{[(1,1-dioxidotetrahydro-2H-thiopyran-4-yl)amino]methyl}-8-methylquinolin-7-yl)-2-fluorobenzamide]",1.5 nM
16,"Cc1c(NC(=O)c2ccc(OCCC3CC3)cc2F)ccc2cc(CNC3CC[S+]([O-])CC3)cnc12 (stereo not drawn) [Ex. 24, 4-(2-cyclopropylethoxy)-2-fluoro-N-(8-methyl-3-{[(trans-1-oxidotetrahydro-2H-thiopyran-4-yl)amino]methyl}quinolin-7-yl)benzamide]",1.5 nM
17,"Cc1c(NC(=O)c2ccc(OCCC3CC3)cc2F)ccc2cc(CNC3CC[S+]([O-])CC3)cnc12 (stereo not drawn) [Ex. 25, 4-(2-cyclopropylethoxy)-2-fluoro-N-(8-methyl-3-{[cis-1-oxidotetrahydro-2H-thiopyran-4-yl)amino]methyl}quinolin-7-yl)benzamide]",1.2 nM
18,"Cc1c(NC(=O)c2ccc(OCC3CC3)cc2)ccc2cc(CNCCCC[S+](C)[O-])cnc12 (stereo not drawn) [Ex. 26, 4-(cyclopropylmethoxy)-N-[8-methyl-3-({[4-(methylsulfinyl)butyl]amino}methyl)quinolin-7-yl]benzamide]",4.6 nM
19,"Cc1c(NC(=O)c2ccc(OCC3CC3)cc2)ccc2cc(CNCCCCS(C)(=O)=O)cnc12 [Ex. 27, 4-(cyclopropylmethoxy)-N-[8-methyl-3-({[4-(methylsulfonyl)butyl]amino}methyl)quinolin-7-yl]benzamide]",1.6 nM
20,"Cc1c(NC(=O)c2ccc(OCC3CC3)cc2)ccc2cc(C(C)NC3CCS(=O)(=O)CC3)cnc12 (stereo not drawn) [Ex. 28, 4-(cyclopropylmethoxy)-N-(3-{1-[(1,1-dioxidotetrahydro-2H-thiopyran-4-yl)amino]ethyl}-8-methylquinolin-7-yl)benzamide]",4.6 nM
21,"Cc1c(NC(=O)c2ccc(OCC3CC3)cc2)ccc2cc([C@@H](C)NC3CC[S+]([O-])CC3)cnc12 (stereo partly drawn) [Ex. 30, 4-(cyclopropylmethoxy)-N-(8-methyl-3-{(1R)-1-[cis-(1-oxidotetrahydro-2H-thiopyran-4-yl)amino]ethyl}quinolin-7-yl)benzamide]",3.9 nM
22,"Cc1c(NC(=O)c2ccc(OCC3CC3)cc2)ccc2cc(CNC3CCS(=O)(=O)CC3)cnc12 [Ex. 31, 4-(cyclopropylmethoxy)-N-(3-{[(1,1-dioxidotetrahydro-2H-thiopyran-4-yl)amino]methyl}-8-methylquinolin-7-yl)benzamide]",5.1 nM
23,"Cc1c(NC(=O)c2ccc(OCC3CC3)cc2)ccc2cc(CNC3CC[S+]([O-])CC3)cnc12 (stereo not drawn) [Ex. 32, 4-(cyclopropylmethoxy)-N-(8-methyl-3-{[(trans-1-oxidotetrahydro-2H-thiopyran-4-yl)amino]methyl}quinolin-7-yl)benzamide]",6.5 nM
24,"Cc1c(NC(=O)c2ccc(OCC3CC3)cc2)ccc2cc(CNC3CC[S+]([O-])CC3)cnc12 (stereo not drawn) [Ex. 33, 4-(cyclopropylmethoxy)-N-(8-methyl-3-{[(cis-1-oxidotetrahydro-2H-thiopyran-4-yl)amino]methyl}quinolin-7-yl)benzamide]",4.1 nM
